Laboratory results published in patent US20100144710A1, “Piperazine and Piperidine MGLUR5 Potentiators” (ASTRAZENECA AB, priority 2007, published 2010).

target: T1, human mGluR5d (Homo sapiens, UniProt P41594); experiment: intracellular calcium [Ca2+]i mobilization (FLIPR) functional assay in cells expressing mGluR5; format: cell-based; conditions: potentiators of mGluR5; 'assays described herein', assay not specified (FLIPR or IP3 turnover)
T1 construct: expressed in transfected cells
From the text: The pharmacological properties of the compounds of the invention can be analyzed using standard assays for functional activity. Examples of glutamate receptor assays are well known in the art as described in for example Aramori et al., Neuron 8:757 (1992), Tanabe et al., Neuron 8:169 (1992), Miller et al., J. Neuroscience 15: 6103 (1995), Balazs, et al., J. Neurochemistry 69:151 (1997). The methodology described in these publications is incorporated herein by reference. Conveniently, the compounds of the invention can be studied by means of an assay that measures the mobilization of intracellular calcium, [Ca^2+]i in cells expressing mGluR5.
Intracellular calcium mobilization was measured by detecting changes in fluorescence of cells loaded with the fluorescent indicator fluo-3. Fluorescent signals were measured using the FLIPR system (Molecular Devices). A two addition experiment was used that could detect compounds that either activate or antagonize the receptor.
For FLIPR analysis, cells expressing human mGluR5d were seeded on collagen coated clear bottom 96-well plates with black sides and analysis of [Ca^2+]i mobilization was done 24 hours after seeding.
FLIPR experiments were performed using a laser setting of 0.800 W and a 0.4 second CCD camera shutter speed. Each FLIPR experiment was initiated with 160 μL of buffer present in each well of the cell plate. After each addition of the compound, the fluorescence signal was sampled 50 times at 1 second intervals followed by 3 samples at 5 second intervals. Responses were measured as the peak height of the response within the sample period.
EC50 and IC50 determinations were made from data obtained from 8-point concentration response curves (CRC) performed in duplicate. Agonist CRC were generated by scaling all responses to the maximal response observed for the plate. Antagonist block of the agonist challenge was normalized to the average response of the agonist challenge in 14 control wells on the same plate.

T1 sequence (P41594 21-942 isoform P41594-3 limits assumed): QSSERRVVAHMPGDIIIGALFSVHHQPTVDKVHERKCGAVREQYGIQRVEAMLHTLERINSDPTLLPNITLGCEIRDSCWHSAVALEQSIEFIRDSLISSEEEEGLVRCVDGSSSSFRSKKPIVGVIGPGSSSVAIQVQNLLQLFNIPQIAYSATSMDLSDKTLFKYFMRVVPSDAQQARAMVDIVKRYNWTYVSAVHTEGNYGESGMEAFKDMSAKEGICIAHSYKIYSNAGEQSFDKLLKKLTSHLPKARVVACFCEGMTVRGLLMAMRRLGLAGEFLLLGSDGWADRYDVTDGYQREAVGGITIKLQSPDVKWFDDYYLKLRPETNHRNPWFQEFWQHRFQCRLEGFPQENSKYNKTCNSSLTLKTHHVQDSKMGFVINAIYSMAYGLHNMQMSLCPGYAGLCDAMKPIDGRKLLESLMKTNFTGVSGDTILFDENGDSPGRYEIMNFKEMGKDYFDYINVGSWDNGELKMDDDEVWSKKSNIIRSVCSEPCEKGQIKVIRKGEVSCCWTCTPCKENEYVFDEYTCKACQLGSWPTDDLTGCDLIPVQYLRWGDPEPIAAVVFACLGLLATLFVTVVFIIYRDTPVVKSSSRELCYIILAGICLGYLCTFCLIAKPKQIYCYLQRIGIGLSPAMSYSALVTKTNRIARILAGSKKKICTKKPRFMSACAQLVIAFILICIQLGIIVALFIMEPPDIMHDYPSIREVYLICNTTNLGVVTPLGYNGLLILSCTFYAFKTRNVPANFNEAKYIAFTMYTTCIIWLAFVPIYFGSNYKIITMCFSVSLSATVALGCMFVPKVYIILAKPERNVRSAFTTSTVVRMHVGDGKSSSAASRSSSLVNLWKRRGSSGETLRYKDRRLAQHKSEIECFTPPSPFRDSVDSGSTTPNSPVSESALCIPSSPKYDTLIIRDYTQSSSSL

Compound	EC50 [µM]
CCCCOc1ccc(CC(=O)N2CCN(c3ncccc3C#N)CC2)cc1 [Compound 1, 2-{4-[2-(4-Butoxy-phenyl)-acetyl]-piperazin-l-yl}-nicotinonitrile]	5.1
N#Cc1cccnc1N1CCN(C(=O)COc2ccccc2)CC1 [Compound 12, 2-[4-(2-Phenoxy-acetyl)-piperazin-1-yl]-nicotinonitrile]	3.5

Now from value to molecule:

EC50 [µM]	Compound
5.6	CCCCc1ccc(N(CC(=O)N2CCN(c3nccnc3C#N)CC2)S(C)(=O)=O)cc1 [Compound 44, N-(4-Butyl-phenyl)-N-{2-(3′-cyano-2,3,5,6-tetrahydro-[1,2]bipyrazinyl-4-yl)-2-oxo-ethyl]-methanesulfonamide]
2.8	CCCOc1ccc(CC(=O)N2CCN(c3ncccc3C#N)CC2)cc1 [Compound 16, 2-{4-[2-(4-Propoxy-phenyl)-acetyl]-piperazin-1-yl}-nicotinonitrile]
3.4	N#Cc1cccnc1N1CCN(C(=O)Cc2ccc(OCc3ccccn3)cc2)CC1 [Compound 45, 2-(4-{2-[4′-(Pyridin-2-ylmethoxy)-phenyl]-acetyl}-piperazin-1-yl)-nicotinonitrile]
